# Measured values as given in patent US20210236582A1, “ANTIMICROBIAL COMPOSITION BASED ON POLYPHENOLS AND POLYSACCHARIDES, METHOD FOR PREPARING THEREOF AND USE OF THE SAME” (priority 2018, published 2021).
# Legend:
# in vitro = conditions: dog
# [1] = test system: Influenza A/Puerto-Rico/8/34 (H1N1) virus; type: cell-based; conditions: for Antiviral activity against A/PR8 (H1N1) virus ΔlgTCID50 av: pronounced antiviral activity ≥ 1.50
# MDCK ECACC cell line = conditions: MDCK ECACC cells, 48 h incubation, MTS
Compound,CC50 at 48 h (in vitro) [µg/mL],Antiviral activity against A/PR8 (H1N1) virus ΔlgTCID50 av [1],"Antiviral activity against A/PR8 (H1N1) virus IC50 av ([1]; MDCK ECACC cells, assessed after 48 h by CPE and HAR)",Cytotoxicity CC50 av (MDCK ECACC cell line) [µg/mL]
"Cc1cc2c(C(C)C)c(O)c(O)cc2c(O)c1-c1c(C)cc2c(C(C)C)c(O)c(O)cc2c1O [Apogossypol, apogossypol]",9.4,0.50,,
gossypol acetic acid,,1.32,0.0012,3.9
